# Measured values from patent US12281180B2, “Peptoid-peptide macrocycles, pharmaceutical compositions and methods of using the same” (New York University, priority 2018, dated 2025).
# Numbered stars: 1 amine (or outer) side, 2 acyl side, 3 side chain; on linkers, the order of the positions; unused ones are H or OH. Square brackets hold non-standard residues; d marks the D form. Peptide text beside a SMILES is read from it. N(2-(2-PhOPh)Et)Gly = O=C(O)CNCCc1ccccc1Oc1ccccc1; Gly(N-3,5-(OMe)2-Ph) = COc1cc(NCC(=O)O)cc(OC)c1; X1 = COc1ccc([C@H](C)N(CC(=O)[*:2])[*:1])cc1; N((CH2)3OiPr)Gly = CC(C)OCCCNCC(=O)O
# Tests used:
# [1] = system: Wnt signaling in zebrafish embryos; assay: Zebrafish phenotypic assay of Wnt signaling (eye development); type: in vivo
# From the text: Rescue of eye development in Wnt-activated zebrafish embryos by the hit oligomer macrocycle—To evaluate the efficacy of 13 in vivo, a zebrafish model was utilized. The relevance of the model for our studies is that zebrafish embryos with Wnt activating mutations in the AXIN gene, a component of the β-catenin destruction complex, fail to develop eyes or a forebrain. The phenotype can be recapitulated by treatment with an inhibitor (termed BIO) for another β-catenin destruction complex member, GSK3, in embryos at 6 hours post-fertilization (hpf). It would then be anticipated that 13 inhibits the chemically over-activated Wnt signal, and potentially rescue eye development. To test this compound BIO was added to zebrafish embryos at 6 hpf with and without 13 as described in FIG. 10A.
# Zebrafish Experiments The zebrafish phenotypic assay was conducted using wildtype zebrafish embryos seeded into a 96 well round bottom plate in 50 μl of blue zebrafish embryo media. At 50% epiboly, roughly 5.5 hours post fertilization, 50 ul of 30 μM cyclic peptoid compound was added. About 30 minutes later at shield stage, 50 μl 6 nM (3×) BIO was added. The embryos were then visualized for the presence of eyes and imaged at 30 hours post fertilization.
# [2] = system: LNCaP-abl and LNCaP-95 cells; assay: RT-qPCR of endogenous Wnt and AR target genes; type: cell-based; details: 10 μM, 24 hours
# Procedure: These cell lines were derived from androgen-sensitive LNCaP cells, and passaged in androgen-deprived media to mimic the development of castration resistance in patient tumors. mRNA from LNCaP-abl and LNCaP-95 cells treated with DMSO (vehicle) was isolated, 10 μM 13 and linear 13 for 24 hours to check the expression of endogenous Wnt and AR target genes (FIG. 8A). […] AR-V7 is particularly challenging to target as most AR antagonists target the ligand binding domain.
# (§1) Cell Culture LNCaP-abl and LNCaP-95 cells were cultured in indicator free RPMI 1640 media (Life) supplemented with 10% charcoal stripped FBS, 1% penn/strep, and 1% L-Glutamine. HEK-293 Cells were cultured in DMEM media (Life) supplemented with 10% FBS and 1% penn/strep. Luciferase assays were conducted using stably transfected TOP-flash and 3×ARE LNCaP-abl cell lines. For the Wnt pathway, TOP-Flash LNCaP-abl cells were treated with siAPC for 24 hours followed by 24 hours treatment with compound. For the AR-pathway, 3×ARE LNCaP-abl cells were treated for 48 hours with compound, with the addition of R1881 for the final 8 hours. Both were measured using the ONE-Glo detection kit (Promega) and reported data is standardized to the cell-titer control values. Co-immunoprecipitation was carried out using HEK293 cells transfected with either myc-TCF (addgene #32738) or myc-TCF dominant negative (addgene #32739) followed by 48 hours of treatment with compound. Cells were lysed using trition lysis buffer and 1 mg total protein was incubated overnight at 4 C with 40 μl anti-cMyc magnetic beads (Thermo). The beads were washed 3× with lysis buffer then boiled in 2× sample loading dye. SDS-PAGE and western blotting were performed using anti-myc (CST 2276) and anti-β-catenin (CST 8480). RT-qPCR was performed using RNA isolated with the RNEasy kit (Qiagen) from LNCaP-abl and LNCaP-95 cells after 24 hour treatment with 10 μM compound. The Verso cDNA synthesis kit (Thermo) with 1 μg total RNA was used, and qPCR data was collected using Fast SYBR Green Master Mix on a QuantiStudio 6 Flex (Life Technologies). 2D proliferation assays were conducted using 384 well plates seeded with 2000 cells/well LNCaP-abl or LNCaP-95 cells. After 5 days of treatment the cell viability was measured with the CellTiter-Fluor Cell Viability Assay (Promega) and data is reported standardized to DMSO control.
# [3] = target: β-catenin:TCF4 interaction (Homo sapiens, UniProt P35222); details: read-out: IC50 for inhibition of β-catenin binding to TCF4 N-terminal β-catenin binding domain; 5 nM His6-β-catenin
# AR signaling = assay: 3x-Androgen Response Element (ARE) luciferase reporter assay; type: cell-based; details: for IC50: 3xARE LNCaP-abl cells, 48 h compound, read-out: IC50 for inhibition of the AR luciferase reporter
# Procedure: (§2) Compound testing and identification of a hit compound—Using a TOP-Flash Wnt luciferase reporter, 12 oligomers identified from in silico modeling for inhibitory activity (FIG. 6A) were tested. At […] concentration, all compounds had some level of Wnt inhibitory activity in cell culture, with varying degrees of efficacy. Also employed was a 3×-Androgen Response Element (ARE) luciferase reporter to measure the effect on AR activity. […] FIG. 2B depicts the predicted structure and contacts of the β-catenin: 13 complex.
# [4] = target: T1, β-catenin:TCF family interaction (Homo sapiens, UniProt P35222); assay: Two-hybrid like assay of β-catenin:TCF family member interactions; type: cell-based
# T1 sequence (P35222 1-781): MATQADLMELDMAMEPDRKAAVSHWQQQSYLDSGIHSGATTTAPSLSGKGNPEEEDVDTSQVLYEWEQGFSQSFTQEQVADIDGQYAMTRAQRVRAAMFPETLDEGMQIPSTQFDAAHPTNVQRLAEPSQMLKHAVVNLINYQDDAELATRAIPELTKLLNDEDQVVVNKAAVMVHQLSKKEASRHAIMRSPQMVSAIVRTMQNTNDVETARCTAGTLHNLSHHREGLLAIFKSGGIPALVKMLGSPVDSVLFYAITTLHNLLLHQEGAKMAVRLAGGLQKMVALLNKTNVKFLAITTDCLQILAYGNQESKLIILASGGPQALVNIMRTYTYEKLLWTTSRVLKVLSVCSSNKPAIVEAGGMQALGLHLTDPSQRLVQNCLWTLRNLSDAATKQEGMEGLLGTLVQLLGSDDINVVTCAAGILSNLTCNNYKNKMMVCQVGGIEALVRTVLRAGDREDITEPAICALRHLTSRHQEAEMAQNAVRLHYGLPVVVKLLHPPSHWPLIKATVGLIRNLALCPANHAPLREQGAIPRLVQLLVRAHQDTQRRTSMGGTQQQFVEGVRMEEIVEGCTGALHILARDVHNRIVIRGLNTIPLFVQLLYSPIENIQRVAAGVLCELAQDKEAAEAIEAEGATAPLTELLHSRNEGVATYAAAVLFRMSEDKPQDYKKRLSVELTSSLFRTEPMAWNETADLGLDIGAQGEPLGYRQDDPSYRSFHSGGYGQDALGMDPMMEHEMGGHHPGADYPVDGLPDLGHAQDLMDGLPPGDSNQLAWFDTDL
# [5] = target: T2, E-cadherin:β-catenin interaction (Homo sapiens, UniProt P35222); assay: Two-hybrid like assay, E-cadherin with β-catenin; type: cell-based
# T2 sequence (P35222 1-781): T1 sequence (P35222 1-781)
# Wnt signaling pathway = assay: TOP-Flash Wnt luciferase reporter assay; type: cell-based; details: for IC50: TOP-Flash LNCaP-abl cells, siAPC 24 h then 24 h compound, read-out: IC50 for Wnt luciferase inhibition
# Procedure: The macrocycles were evaluated for their ability to inhibit the Wnt signaling pathway in cell culture. The macrocycles were administered at a concentration of 10 micromolar, and the activity was monitored with a luciferase reporter assay responsive to signaling through the Wnt pathway. […] The macrocycles were also observed to exert minimal cellular toxicity at the 10 micromolar concentration. […] Cells were incubated with 5 μM of peptoid macrocycles prior to co-IP.
# as §2
# LNCaP-abl spheroids = assay: Spheroid 3D cell culture (PrestoBlue viability, spheroid area); type: cell-based
# Procedure: The effects on spheroid formation and growth were evaluated following treatment with DMSO, 13, or linear 13 administered at the time of seeding at low cell density in a 384 well plate. In a separate experiment, to test the impact on pre-formed spheroids, cells were treated five days after initial seeding. Spheroids from both experiments were grown for 22 days, with compound refreshed on days 5, 9, 13, 16, and 20. […] PrestoBlue was used to measure cell viability on day 22 (FIG. 9B). […] FIG. 9C-F depicts spheroid area over time based on size measurements from the images taken throughout the experiment.
# Spheroid 3D Cell Culture LNCaP-abl cells were seeded into 384 well ultra-low attachment plates (Corning), 1000 cells/well. Varying concentrations of compound were added either on the same day as seeding or on day 5. Media was changed every 3-4 days using a Biotek automated media exchanger. Images were taken using an ArraySca VTI (Thermo) on days 5, 9, 13, 16, 20, and 22. A final viability measurement was taken on day 22 using PrestoBlue reagent (Thermo).
# [6] = target: T3, β-catenin:TCF4 protein interaction (Homo sapiens, UniProt P35222); assay: Co-immunoprecipitation of myc-TCF4 and endogenous β-catenin in HEK293 cells; type: cell-based; details: 10 μM, 48 hour treatment
# T3 construct: endogenous in cells; host or cells: HEK293 (β-catenin endogenous; myc-TCF4 transfected from addgene #32738)
# T3 sequence (P35222 2-781 limits assumed): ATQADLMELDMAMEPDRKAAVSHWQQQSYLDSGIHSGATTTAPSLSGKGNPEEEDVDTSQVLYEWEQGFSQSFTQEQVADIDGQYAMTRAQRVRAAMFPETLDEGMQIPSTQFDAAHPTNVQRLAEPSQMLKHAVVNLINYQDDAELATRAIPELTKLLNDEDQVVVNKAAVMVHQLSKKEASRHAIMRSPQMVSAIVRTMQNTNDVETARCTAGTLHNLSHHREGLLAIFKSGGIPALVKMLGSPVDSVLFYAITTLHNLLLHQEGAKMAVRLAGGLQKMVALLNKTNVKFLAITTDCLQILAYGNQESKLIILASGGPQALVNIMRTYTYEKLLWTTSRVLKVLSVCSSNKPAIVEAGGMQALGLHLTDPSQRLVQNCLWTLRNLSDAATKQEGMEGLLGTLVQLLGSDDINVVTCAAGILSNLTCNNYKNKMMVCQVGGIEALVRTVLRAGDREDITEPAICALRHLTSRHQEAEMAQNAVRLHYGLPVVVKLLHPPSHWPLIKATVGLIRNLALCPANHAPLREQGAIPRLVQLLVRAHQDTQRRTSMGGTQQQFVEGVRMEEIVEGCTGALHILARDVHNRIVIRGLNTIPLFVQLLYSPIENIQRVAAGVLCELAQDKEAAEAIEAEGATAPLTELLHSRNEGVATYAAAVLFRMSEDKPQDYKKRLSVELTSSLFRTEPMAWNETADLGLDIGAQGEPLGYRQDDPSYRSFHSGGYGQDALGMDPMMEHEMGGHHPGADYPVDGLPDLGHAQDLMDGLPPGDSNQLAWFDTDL
# Procedure: HEK293 cells were transiently transfected with a plasmid expressing full length, myc-tagged TCF4.
# as §1, with “The beads were washed 3× with lysis buffer then boiled in 2× sample loading dye. SDS-PAGE and western blotting were performed using anti-myc (CST 2276) and anti-β-catenin (CST 8480). RT-qPCR was performed using RNA isolated with the RNEasy kit (Qiagen) from LNCaP-abl and LNCaP-95 cells after 24 hour treatment with 10 μM compound. The Verso cDNA synthesis kit (Thermo) with 1 μg total RNA was used, and qPCR data was collected using Fast SYBR Green Master Mix on a QuantiStudio 6 Flex (Life Technologies). 2D proliferation assays were conducted using 384 well plates seeded with 2000 cells/well LNCaP-abl or LNCaP-95 cells.” left out
# [7] = 3 additional independent experiments, each
# [8] = first experiment, eight fish, BIO added at 6 hpf with or without 13
compound,measurement,setting,value
"O=C1Nc2cc(Br)ccc2/C1=C1/Nc2ccccc2/C1=N\O [BIO, reference compound]",Fish that developed eyes,[1]; [7],0/8
same,Fish that developed eyes,[1]; [8],one of the eight fish
"COc1ccc([C@H](C)N2CC(=O)N[C@H](C)C(=O)N(CCc3ccccc3Oc3ccccc3)CC(=O)N(c3cc(OC)cc(OC)c3)CC(=O)N(CCCOC(C)C)CC(=O)N([C@@H](C)c3ccc(OC)cc3)CC2=O)cc1 [Compound 13] (cyclo([dA][N(2-(2-PhOPh)Et)Gly][Gly(N-3,5-(OMe)2-Ph)][N((CH2)3OiPr)Gly][X1][X1]))",AR mRNA,[2],decreased
same,Cyclin D1 mRNA,[2],decreased
same,FKBP5 mRNA,[2],decreased
same,PSA mRNA,[2],decreased
same,Transcription of AR splice variant AR-V7,[2],decreased
same,Transcription of E-cadherin,[2],increased
same,cMYC mRNA,[2],decreased
same,IC50,[3],5.44 µM
same,"Inhibition of AR signaling, 3x-ARE luciferase reporter",AR signaling,more effective
same,IC50,AR signaling,1.02 µM
same,Fish that developed eyes,[1]; [7],8/8
same,Fish that developed eyes,[1]; [8],all the fish
same,Inhibition of TCF family interaction with β-catenin,[4],inhibits
same,Inhibition of E-cadherin interaction with β-catenin,[5],not
same,"Wnt inhibitory activity, TOP-Flash Wnt luciferase reporter","Wnt signaling pathway; 10 µM concentration, cell culture",more effective
same,IC50,Wnt signaling pathway,0.105 µM
same,Spheroid growth / area over time,"LNCaP-abl spheroids; 0.5 μM, added on day 0",slowed the growth
same,Spheroid formation / area over time,"LNCaP-abl spheroids; 20 μM, 10 μM, 5 μM, 2 μM and 1 μM, added on day 0 with seeding",prevented spheroid formation
same,Growth of preformed spheroids / area over time,"LNCaP-abl spheroids; at or above 2 μM, treatment started at day 5",stalled the growth of preformed spheroids
same,Spheroid growth / area over time,LNCaP-abl spheroids; between 0.001 µM and 0.1 μM,little effect
same,"β-catenin:TCF interaction by co-immunoprecipitation, compared to DMSO",[6],decreased
"NH2-D-Ala-N-mpp, N-dmp, N-ipp, N-Smpe, N-Smpe-OH [linear 13]",IC50,AR signaling,7.63 µM
same,IC50,Wnt signaling pathway,3.27 µM
